Assay results taken from patent US8809367B2, “1-1-Oxo-1,2,3,4-tetrahydroisoquinolin-7-yl)urea derivatives as N-formyl peptide receptor like-1 (FPRL-1) receptor modulators” (Allergan, Inc., priority 2011, dated 2014).

Target: T1, FPRL-1 (Homo sapiens, UniProt P25090)
T1 construct: expressed in transfected cells
T1 sequence (P25090 1-351): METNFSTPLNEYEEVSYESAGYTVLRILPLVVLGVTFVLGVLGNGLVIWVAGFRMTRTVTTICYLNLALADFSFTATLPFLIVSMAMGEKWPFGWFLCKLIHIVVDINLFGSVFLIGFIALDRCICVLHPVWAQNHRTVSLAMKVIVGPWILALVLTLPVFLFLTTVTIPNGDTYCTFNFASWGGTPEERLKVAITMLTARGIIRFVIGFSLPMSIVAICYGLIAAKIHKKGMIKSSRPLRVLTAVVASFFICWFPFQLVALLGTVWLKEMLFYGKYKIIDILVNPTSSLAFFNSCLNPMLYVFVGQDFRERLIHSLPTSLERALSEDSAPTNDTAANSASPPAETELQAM
Test: compound-induced calcium activity on FLIPR Tetra in CHO-Ga16 cells stably expressing FPRL1
Assay type: cell-based
Conditions: for FPRL-1 Ga16-CHO (eff): efficacy value in brackets under EC50; for EC50: tested at 0.61 to 10,000 nM
Procedure: CHO-Ga16 cells stably expressing FPRL1 were cultured in (F12, 10% FBS, 1% PSA, 400 μg/ml geneticin and 50 μg/ml hygromycin) and HEK-Gqi5 cells stable expressing FPR1 were cultured in (DMEM high glucose, 10% FBS, 1% PSA, 400 μg/ml geneticin and 50 μg/ml hygromycin). In general, the day before the experiment, 18,000 cells/well were plated in a 384-well clear bottom poly-d-lysine coated plate. The following day the screening compound-induced calcium activity was assayed on the FLIPR^Tetra. The drug plates were prepared in 384-well microplates using the EP3 and the MultiPROBE robotic liquid handling systems. Compounds were tested at concentrations ranging from 0.61 to 10,000 nM. Results are expressed as EC50 (nM) and efficacy values.

| SMILES | FPRL-1 Ga16-CHO (eff) | EC50 [nM] |
| --- | --- | --- |
| CC(=O)c1ccc(NC(=O)Nc2ccc3c(c2)C(=O)N(CCCN)C(c2ccc(C#N)cc2)C3)cc1 (stereo not drawn) [Compound 1, 1-(4-acetylphenyl)-3-[2-(3-aminopropyl)-3-(4-cyanophenyl)-1-oxo-1,2,3,4-tetrahydroisoquinolin-7-yl]urea] | (1.00) | 40 |
| CS(=O)(=O)c1ccc(NC(=O)Nc2ccc3c(c2)C(=O)N(CCCN)[C@@H](c2ccc(C#N)cc2)C3)cc1 [Compound 15, (R)-1-[2-(3-aminopropyl)-3-(4-cyanophenyl)-1-oxo-1,2,3,4-tetrahydroisoquinolin-7-yl]-3-[4-(methylsulfonyl)phenyl]urea] | (0.90) | 29 |
| CSc1ccc(NC(=O)Nc2ccc3c(c2)C(=O)N(CCc2c[nH]cn2)C(c2ccco2)C3)cc1 (stereo not drawn) [Compound 23, 1-{3-(2-furyl)-2-[2-(1H-imidazol-4-yl)ethyl]-1-oxo-1,2,3,4-tetrahydroisoquinolin-7-yl}-3-[4-(methylthio)phenyl]urea] | (0.83) | 19 |
| CSc1ccc(NC(=O)Nc2ccc3c(c2)C(=O)N(CCc2c[nH]cn2)C(c2ccc(Cl)nc2)C3)cc1 (stereo not drawn) [Compound 26, 1-{3-(6-chloropyridin-3-yl)-2-[2-(1H-imidazol-4-yl)ethyl]-1-oxo-1,2,3,4-tetrahydroisoquinolin-7-yl}-3-[4-(methylthio)phenyl]urea] | (0.89) | 6.3 |
| CSc1ccc(NC(=O)Nc2ccc3c(c2)C(=O)N(CCCN)[C@@H](c2ccc(C#N)cc2)C3)cc1 [Compound 11, (R)-1-[2-(3-aminopropyl)-3-(4-cyanophenyl)-1-oxo-1,2,3,4-tetrahydroisoquinolin-7-yl]-3-[4-(methylthio)phenyl]urea] | (0.97) | 3.3 |
| CSc1ccc(NC(=O)Nc2ccc3c(c2)C(=O)N(CCc2c[nH]cn2)C(c2ccc(Cl)cn2)C3)cc1 (stereo not drawn) [Compound 28, 1-{3-(5-chloropyridin-2-yl)-2-[2-(1H-imidazol-4-yl)ethyl]-1-oxo-1,2,3,4-tetrahydroisoquinolin-7-yl}-3-[4-(methylthio)phenyl]urea] | (0.91) | 13.5 |
| CS(=O)(=O)c1ccc(NC(=O)Nc2ccc3c(c2)C(=O)N(CCc2c[nH]cn2)C(c2ccc(C#N)cc2)C3)cc1 (stereo not drawn) [Compound 30, 1-{3-(4-cyanophenyl)-2-[2-(1H-imidazol-4-yl)ethyl]-1-oxo-1,2,3,4-tetrahydroisoquinolin-7-yl}-3-[4-(methylsulfonyl)phenyl]urea] | (1.00) | 20 |
| CS(=O)(=O)c1ccc(NC(=O)Nc2ccc3c(c2)C(=O)N(CCc2c[nH]cn2)C(c2ccc(Cl)cn2)C3)cc1 (stereo not drawn) [Compound 34, 1-{3-(5-chloropyridin-2-yl)-2-[2-(1H-imidazol-4-yl)ethyl]-1-oxo-1,2,3,4-tetrahydroisoquinolin-7-yl}-3-[4-(methylsulfonyl)phenyl]urea] | (0.99) | 9.5 |
| C[S+]([O-])c1ccc(NC(=O)Nc2ccc3c(c2)C(=O)N(CCCN)C(c2ccc(C#N)cc2)C3)cc1 (stereo not drawn) [Compound 7, 1-[2-(3-aminopropyl)-3-(4-cyanophenyl)-1-oxo-1,2,3,4-tetrahydroisoquinolin-7-yl]-3-[4-(methylsulfinyl)phenyl]urea] | (0.92) | – |
| CC(=O)c1ccc(NC(=O)Nc2ccc3c(c2)C(=O)N(CCc2c[nH]cn2)C(c2ccc(C#N)cc2)C3)cc1 (stereo not drawn) [Compound 18, 1-(4-acetylphenyl)-3-{3-(4-cyanophenyl)-2-[2-(1H-imidazol-4-yl)ethyl]-1-oxo-1,2,3,4-tetrahydroisoquinolin-7-yl}urea] | (0.80) | 11 |
| C[S+]([O-])c1ccc(NC(=O)Nc2ccc3c(c2)C(=O)N(CCc2c[nH]cn2)C(c2ccc(C#N)cc2)C3)cc1 (stereo not drawn) [Compound 29, 1-{3-(4-cyanophenyl)-2-[2-(1H-imidazol-4-yl)ethyl]-1-oxo-1,2,3,4-tetrahydroisoquinolin-7-yl}-3-[4-(methylsulfinyl)phenyl]urea] | (0.96) | 22 |
| CSc1ccc(NC(=O)Nc2ccc3c(c2)C(=O)N(CCCN)[C@H](c2ccc(C#N)cc2)C3)cc1 [Compound 10, (S)-1-[2-(3-aminopropyl)-3-(4-cyanophenyl)-1-oxo-1,2,3,4-tetrahydroisoquinolin-7-yl]-3-[4-(methylthio)phenyl]urea] | (1.0) | 299 |
| C[S+]([O-])c1ccc(NC(=O)Nc2ccc3c(c2)C(=O)N(CCc2c[nH]cn2)C(c2ccc(F)cn2)C3)cc1 (stereo not drawn) [Compound 31, 1-{3-(5-fluoropyridin-2-yl)-2-[2-(1H-imidazol-4-yl)ethyl]-1-oxo-1,2,3,4-tetrahydroisoquinolin-7-yl}-3-[4-(methylsulfinyl)phenyl]urea] | (0.93) | 11.8 |
| CC(=O)c1ccc(NC(=O)Nc2ccc3c(c2)C(=O)N(CCc2c[nH]cn2)C(c2ccc(Cl)nc2)C3)cc1 (stereo not drawn) [Compound 25, 1-(4-acetylphenyl)-3-{3-(6-chloropyridin-3-yl)-2-[2-(1H-imidazol-4-yl)ethyl]-1-oxo-1,2,3,4-tetrahydroisoquinolin-7-yl}urea] | (0.81) | 24 |
| CSc1ccc(NC(=O)Nc2ccc3c(c2)C(=O)N(CCCN)C(c2ccc(C#N)cc2)C3)cc1 (stereo not drawn) [Compound 5, 1-[2-(3-aminopropyl)-3-(4-cyanophenyl)-1-oxo-1,2,3,4-tetrahydroisoquinolin-7-yl]-3-[4-(methylthio)phenyl]urea] | (0.70) | 2.5 |
| CS(=O)(=O)c1ccc(NC(=O)Nc2ccc3c(c2)C(=O)N(CCCN)C(c2ccc(C#N)cc2)C3)cc1 (stereo not drawn) [Compound 8, 1-[2-(3-aminopropyl)-3-(4-cyanophenyl)-1-oxo-1,2,3,4-tetrahydroisoquinolin-7-yl]-3-[4-(methylsulfonyl)phenyl]urea] | (0.86) | 10 |
| CC1Cc2ccc(NC(=O)Nc3ccc(S(C)(=O)=O)cc3)cc2C(=O)N1CCCN (stereo not drawn) [Compound 17, 1-[2-(3-aminopropyl)-3-methyl-1-oxo-1,2,3,4-tetrahydroisoquinolin-7-yl]-3-[4-(methylsulfonyl)phenyl]urea] | (88) | 150 |
| N#Cc1ccc(C2Cc3ccc(NC(=O)Nc4ccc(Br)cc4)cc3C(=O)N2CCCN)cc1 (stereo not drawn) [Compound 6, 1-[2-(3-aminopropyl)-3-(4-cyanophenyl)-1-oxo-1,2,3,4-tetrahydroisoquinolin-7-yl]-3-(4-bromophenyl)urea] | (1.00) | 31 |
| CSc1ccc(NC(=O)Nc2ccc3c(c2)C(=O)N(CCCN)C(C)C3)cc1 (stereo not drawn) [Compound 16, 1-[2-(3-aminopropyl)-3-methyl-1-oxo-1,2,3,4-tetrahydroisoquinolin-7-yl]-3-[4-(methylthio)phenyl]urea] | (0.89) | 15 |
| CCSc1ccc(NC(=O)Nc2ccc3c(c2)C(=O)N(CCCN)C(c2ccc(C#N)cc2)C3)cc1 (stereo not drawn) [Compound 9, 1-[2-(3-aminopropyl)-3-(4-cyanophenyl)-1-oxo-1,2,3,4-tetrahydroisoquinolin-7-yl]-3-[4-(ethylthio)phenyl]urea] | (1.0) | 23 |
